Measurements taken from article PMC6982817, “Substituted N-(Pyrazin-2-yl)benzenesulfonamides; Synthesis, Anti-Infective Evaluation, Cytotoxicity, and In Silico Studies” (Molecules, 2019).
≈ marks a conversion by molar mass, not a printed value. Where two headings read alike, the source gives them in different places.

Tests used:
[1] = system: Mycobacterium tuberculosis H37Rv CNCTC My 331/88 (ATCC 27294); assay: Antimycobacterial microplate alamar blue assay, M. tuberculosis H37Rv; type: cell-based; conditions: for Antimycobacterial Activity MIC Mtb H37Rv: Middlebrook 7H9 broth pH 6.6, alamar blue; for MIC: Mycobacterium tuberculosis
[2] = system: Mycobacterium aurum DSM 43999 (ATCC 23366); assay: Antimycobacterial microdilution assay, M. aurum; type: cell-based; conditions: Middlebrook 7H9 broth, resazurin after 72 hours; for MIC: Mycolicibacterium aurum, 72 h
[3] = in vitro; conditions: human
[4] = system: Mycobacterium smegmatis DSM 43465 (ATCC 607); assay: Antimycobacterial microdilution assay, M. smegmatis; type: cell-based; conditions: for MIC: Mycolicibacterium smegmatis
[5] = system: M. kansasii CNCTC My 235/80 (ATCC 12478); assay: Antimycobacterial microplate alamar blue assay, M. kansasii; type: cell-based, Mycobacterium kansasii; conditions: for MIC: Mycobacterium kansasii; for Antimycobacterial Activity MIC M. kansasii: Middlebrook 7H9 broth pH 6.6, alamar blue
[6] = system: M. avium ssp. avium CNCTC My 80/72 (ATCC 15769); assay: Antimycobacterial microplate alamar blue assay, M. avium; type: cell-based, Mycobacterium avium; conditions: for MIC: Mycobacterium avium
[7] = 48 h, Middlebrook 7H9 broth, resazurin after 48 hours, read-out: Antimycobacterial Activity MIC M. smeg
[8] = Table 4 comparison, title compounds, read-out: Antimycobacterial Activity MIC against Mtb H37Rv, Sulfonamide
[9] = pH 6.6, Middlebrook 7H9 broth pH 6.6, alamar blue, read-out: Antimycobacterial Activity MIC Mtb H37Rv
[10] = ATCC12478, pH 6.6, Middlebrook 7H9 broth pH 6.6, alamar blue, read-out: Antimycobacterial Activity MIC M. kansasii
[11] = ATCC15769, pH 6.6, Middlebrook 7H9 broth pH 6.6, alamar blue, read-out: Antimycobacterial Activity MIC M. avium
[12] = ATCC12478, molar value printed beside μg/mL in text, read-out: MIC M. kansasii
[13] = Middlebrook 7H9 broth, resazurin after 48 hours

SMILES	Antimycobacterial Activity MIC Mtb H37Rv [1]	MIC ([1]; pH 6.6, read-out: Antimycobacterial Activity MIC Mtb H37Rv) [µg/mL]	MIC [2] [µg/mL]	melting point [°C]	IC50 at 24 h [3] [µM]	MIC [4, 7] [µg/mL]	MIC [1, 8] [µg/mL]	MIC [1, 9] [µg/mL]	MIC [5, 10] [µg/mL]	MIC [6, 11] [µg/mL]	MIC [5, 12] [µM]	MIC ([1]; read-out: MIC Mtb H37Rv) [µM]	MIC ([6]; ATCC15769, molar value printed beside μg/mL in text, read-out: MIC M. avium) [µM]	Antimycobacterial Activity MIC M. kansasii [5] [µg/mL]	MIC ([4]; read-out: MIC M. smegmatis) [µM]	Antimycobacterial Activity MIC M. aurum [2] [µg/mL]	Antimycobacterial Activity MIC M. smeg [4, 13] [µg/mL]	Antimycobacterial Activity MIC M. avium ([6]; Middlebrook 7H9 broth pH 6.6, alamar blue) [µg/mL]
NS(=O)(=O)c1ccccc1 [Benzenesulfonamide, benzenesulfonamide]	completely inactive	> 100																
O=S(=O)(Nc1cnccn1)c1ccccc1 [Compound 1a, N-(pyrazin-2-yl)benzenesulfonamide]			≥ 500	203 to 205	> 1000	≥ 250	> 100	> 100	100	> 100								
O=S(=O)(Nc1cncc(Cl)n1)c1ccccc1 [Compound 1b, N-(6-chloropyrazin-2-yl)benzenesulfonamide]			≥ 500	198 to 200.2	731	250	50	50	100	> 100								
CC(=O)Nc1ccc(S(=O)(=O)Nc2cnccn2)cc1 [Compound 2a, N-(4-(N-(pyrazin-2-yl)sulfamoyl)phenyl)acetamide]			≥ 500	243.8 to 245.6	> 500	≥ 500		> 100	25	> 100	85.5							
CC(=O)Nc1ccc(S(=O)(=O)Nc2cncc(Cl)n2)cc1 [Compound 2b, N-(4-(N-(6-chloropyrazin-2-yl)sulfamoyl)phenyl)acetamide]			≥ 500		> 500	250		> 100	25	> 100	76.5							
O=[N+]([O-])c1ccc(S(=O)(=O)Nc2cnccn2)cc1 [Compound 3a, 4-nitro-N-(pyrazin-2-yl)benzenesulfonamide]			> 500	230.8 to 231.8	> 1000	> 500		> 100	> 100	> 100								
O=[N+]([O-])c1ccc(S(=O)(=O)Nc2cncc(Cl)n2)cc1 [Compound 3b, N-(6-chloropyrazin-2-yl)-4-nitrobenzenesulfonamide]			125 (≈ 397 µM)		> 1000	250		> 100	> 100	> 100								
Nc1ccc(S(=O)(=O)Nc2cnccn2)cc1 [Compound 4a, 4-amino-N-(pyrazin-2-yl)benzenesulfonamide]			250 (≈ 999 µM)		776	≥ 500		6.25		100	6.2	25						
Nc1ccc(S(=O)(=O)Nc2cncc(Cl)n2)cc1 [Compound 4b, 4-amino-N-(6-chloropyrazin-2-yl)benzenesulfonamide]			250 (≈ 878 µM)	234.7 to 236.1	> 500	≥ 500		6.25	12.5	25	44	22	88					
O=S(=O)(Nc1cnccn1)c1ccc(C(F)(F)F)cc1 [Compound 5a, N-(pyrazin-2-yl)-4-(trifluoromethyl)benzenesulfonamide]			250 (≈ 824 µM)	154.3 to 155.5	> 1000	250		> 100	50	> 100								
O=S(=O)(Nc1cncc(Cl)n1)c1ccc(C(F)(F)F)cc1 [Compound 5b, N-(6-chloropyrazin-2-yl)-4-(trifluoromethyl)benzenesulfonamide]			250 (≈ 740 µM)	125 to 127.2	364	250		100	> 100	> 100								
COc1ccc(S(=O)(=O)Nc2cnccn2)cc1 [Compound 6a, 4-methoxy-N-(pyrazin-2-yl)benzenesulfonamide]			≥ 500		> 1000	≥ 500	> 100	> 100	> 100	> 100								
O=S(=O)(Nc1cncc(Cl)n1)c1ccc(Br)cc1 [Compound 7b, 4-bromo-N-(6-chloropyrazin-2-yl)benzenesulfonamide]			125 (≈ 359 µM)	176.5 to 179.3	308	125		100	50	> 100								
Cc1cc(C)cc(S(=O)(=O)Nc2cnccn2)c1 [Compound 8a, 3,5-dimethyl-N-(pyrazin-2-yl)benzenesulfonamide]			250 (≈ 949 µM)	184 to 187	> 500	≥ 500		> 100	50	> 100								
Cc1cc(C)cc(S(=O)(=O)Nc2cncc(Cl)n2)c1 [Compound 8b, N-(6-chloropyrazin-2-yl)-3,5-dimethylbenzenesulfonamide]			≥ 500		523	≥ 500		50	> 100	50								
Cc1cc(C)c(S(=O)(=O)Nc2cnccn2)c(C)c1 [Compound 9a, 2,4,6-trimethyl-N-(pyrazin-2-yl)benzenesulfonamide]			≥ 500		> 250	125		> 100	> 100	> 100								
Cc1cc(C)c(C)c(S(=O)(=O)Nc2cnccn2)c1C [Compound 10a, 2,3,5,6-tetramethyl-N-(pyrazin-2-yl)benzenesulfonamide]			≥ 500	221 to 223.7	> 250	≥ 500		> 100	50	> 100								
O=S(=O)(Nc1cnccn1)c1ccc2c(c1)OCCO2 [Compound 11a, N-(pyrazin-2-yl)-2,3-dihydrobenzo[b][1,4]dioxine-6-sulfonamide]			250 (≈ 852 µM)	264 to 267.1	> 1000	≥ 500		> 100	> 100	> 100	> 305			>100				
O=S(=O)(Nc1cncc(Cl)n1)c1ccc2c(c1)OCCO2 [Compound 11b, N-(6-chloropyrazin-2-yl)-2,3-dihydrobenzo[b][1,4]dioxine-6-sulfonamide]			≥ 500	244.6 to 247	778	≥ 500		> 100	25	> 100	76.3							
O=S(=O)(Nc1cnccn1)c1ccc(-c2ccccc2)cc1 [Compound 12a, N-(pyrazin-2-yl)-[1,1′-biphenyl]-4-sulfonamide]			≥ 500		> 250	≥ 500		100	100	> 100	321							
O=S(=O)(Nc1cncc(Cl)n1)c1ccc(-c2ccccc2)cc1 [Compound 12b, N-(6-chloropyrazin-2-yl)-[1,1′-biphenyl]-4-sulfonamide]			≥ 500	229.3 to 230.3	302	≥ 500		100	12.5	> 100	36.1							
O=S(=O)(Nc1cnccn1)c1ccc2ccccc2c1 [Compound 13a, N-(pyrazin-2-yl)naphthalene-2-sulfonamide]			≥ 500	223.5 to 224.7	> 500	62.5		> 100	50	> 100					219			
O=S(=O)(Nc1cnccn1)c1ccc2ncccc2c1 [Compound 14a, N-(pyrazin-2-yl)quinoline-6-sulfonamide]			≥ 500	249.4 to 252	> 250	≥ 500		> 100	100	> 100								
CO[C@H]1/C=C/O[C@@]2(C)Oc3c(C)c(O)c4c(O)c(c(/C=N/N5CCN(C)CC5)c(O)c4c3C2=O)NC(=O)/C(C)=C\C=C\[C@H](C)[C@H](O)[C@@H](C)[C@@H](O)[C@@H](C)[C@H](OC(C)=O)[C@@H]1C [RFM, reference compound]			0.78 to 1.56 (≈ 0.948 to 1.9 µM)			12.5 to 25										1.56	25	
Nc1ccc(S(=O)(=O)Nc2cncc(Cl)n2)cc1 [Sulfaclozine, reference compound]	6.25 µg/mL													12.5		250	250	25
Nc1ccc(S(=O)(=O)Nc2cnc3ccccc3n2)cc1 [Sulfaquinoxaline, reference compound]			250 (≈ 832 µM)			125		3.13	12.5	50								
